Patent US8603513B2 (priority 2007, dated 2013)
“And” between values parts separate entries of the source, which are not always exact repeats. Equal entries are not always repeated. Where two headings read alike, the source gives them in different places.

Key:
[1] = test system: Staphylococcus aureus MN 8; type: cell-based
[2] = test system: TSST-1 toxin produced by S. aureus; type: cell-based, Staphylococcus aureus MN 8
[3] = test system: Lactobacillus gasseri (ATCC 9857); type: cell-based
[4] = test system: Lactobacillus iners (LMG 18916); type: cell-based
[5] = test system: Lactobacillus crispatus (LMG 12005); type: cell-based

Row | SMILES | Change in S. Aureus CFU/ml vs. control [1] | % TSST-1 Change (ug/ml) vs. control [2] | % TSST-1 Change (ug/ml/mM) vs. control [2] | further results
1 | O=C1O[C@H]([C@@H](O)CO)C(O)=C1O [Calcium ascorbate, calcium ascorbate] | >2 log |  |  | growth of S. aureus relative to controls [1]: virtually eliminate the growth
2 | [Ca+2].[Cl-].[Cl-] [Calcium chloride] | ≦1 log | 82% | 2.5% and 1.1% | % TSST-1 Change (ug/ml) vs. control ([2]; 18-20 h, 37° C.): 37%
3 | CC(O)C(=O)[O-].CC(O)C(=O)[O-].[Ca+2] (stereo not shown) [Calcium lactate] | <1 log | 49% and 89% and 90% | 5.6% and 1.7% | Change in L. gasseri vs. control [3]: <1 log; Change in L. iners vs. control [4]: <1 log; Change in L. cripatus vs. control [5]: <1 log
4 | CCCCCCCCCCCCCCCCCC(=O)O [Calcium stearate, calcium stearate] |  | 65% and 62% | 6.6% and 0.6% | 
5 | [Cl][Cu][Cl] [Copper chloride] | >3 log |  |  | 
6 | [Cl][Fe][Cl] [Ferrous chloride] | >2 log |  |  | 
7 | [Cl-].[Cl-].[Mg+2] [Magnesium chloride] | ≦1 log | 47% |  | 
8 | [Cl-].[Cl-].[Zn+2] [Zinc chloride] | >2 log |  |  | 
